# In the supplement of paper PMC10307832:
# Assays:
# Test in all cases: relative viability (nuclei count vs DMSO), 5 days (fraction); higher = more cells survive
# NCI-H2228 = system: NCI-H2228
# Method in brief: (§1)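 Relative viability divides the nuclei count in treated wells by that in vehicle wells. Lung cancer cell lines were seeded in 1536-well plates, dosed by pin tool the next day, and fixed and stained after 5 days in one step with final 0.05% Triton X-100, 1% formaldehyde and 1 ug/ml Hoechst. Dosing was a single drug or a fixed anchor-drug dose plus five library-drug doses (not always all listed) in √10 steps, and values are medians of duplicate plates imaged at 4×.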
# SW 1573 = system: SW 1573
# Method in brief: as §1
# HOP-62 = system: HOP-62
# Method in brief: as §1
# NCI-H2126 = system: NCI-H2126
# Method in brief: as §1
# NCI-H1792 = system: NCI-H1792
# Method in brief: as §1
# LOU-NH91 = system: LOU-NH91
# Method in brief: as §1
# NCI-H647 = system: NCI-H647
# Method in brief: as §1
# NCI-H1975 = system: NCI-H1975
# Method in brief: as §1
# LC-2-ad = system: LC-2-ad
# Method in brief: as §1
# NCI-H460 = system: NCI-H460
# Method in brief: as §1
# SK-LU-1 = system: SK-LU-1
# Method in brief: as §1
# NCI-H1734 = system: NCI-H1734
# Method in brief: as §1
# PC-3 [JPC-3] = system: PC-3 [JPC-3]
# Method in brief: as §1
# HCC-15 = system: HCC-15
# Method in brief: as §1
# A-427 = system: A-427
# Method in brief: as §1
# HCC-78 = system: HCC-78
# Method in brief: as §1
# NCI-H1915 = system: NCI-H1915
# Method in brief: as §1
# NCI-H1755 = system: NCI-H1755
# Method in brief: as §1
# RERF-LC-KJ = system: RERF-LC-KJ
# Method in brief: as §1
# NCI-H358 = system: NCI-H358
# Method in brief: as §1
# LXF-289 = system: LXF-289
# Method in brief: as §1
# NCI-H2347 = system: NCI-H2347
# Method in brief: as §1
smiles,measurement,setting,value
Oc1nc(-c2ccc(C(F)(F)F)cc2)nc2c1CSCC2 [XAV939] + C[C@@H](Oc1cc(-c2cnn(C3CCNCC3)c2)cnc1N)c1c(Cl)ccc(F)c1Cl [Crizotinib] (partner 1 µM),relative viability,NCI-H2228; first compound 0.08 µM,0.431
same,relative viability,NCI-H2228; first compound 0.253 µM,0.438
same,relative viability,NCI-H2228; first compound 0.8 µM,0.464
same,relative viability,NCI-H2228; first compound 2.53 µM,0.398
same,relative viability,SW 1573; first compound 0.08 µM,0.948
same,relative viability,SW 1573; first compound 0.253 µM,0.85
same,relative viability,SW 1573; first compound 0.8 µM,0.757
same,relative viability,SW 1573; first compound 2.53 µM,0.646
same,relative viability,HOP-62; first compound 0.08 µM,0.972
same,relative viability,HOP-62; first compound 0.253 µM,0.862
same,relative viability,HOP-62; first compound 0.8 µM,0.906
same,relative viability,HOP-62; first compound 2.53 µM,0.727
same,relative viability,NCI-H2126; first compound 0.08 µM,1.12
same,relative viability,NCI-H2126; first compound 0.253 µM,0.95
same,relative viability,NCI-H2126; first compound 0.8 µM,0.938
same,relative viability,NCI-H2126; first compound 2.53 µM,0.828
same,relative viability,NCI-H1792; first compound 0.08 µM,0.994
same,relative viability,NCI-H1792; first compound 0.253 µM,0.896
same,relative viability,NCI-H1792; first compound 0.8 µM,0.977
same,relative viability,NCI-H1792; first compound 2.53 µM,0.902
same,relative viability,LOU-NH91; first compound 0.08 µM,0.719
same,relative viability,LOU-NH91; first compound 0.253 µM,0.708
same,relative viability,LOU-NH91; first compound 0.8 µM,0.734
same,relative viability,LOU-NH91; first compound 2.53 µM,0.699
same,relative viability,NCI-H647; first compound 0.08 µM,1.07
same,relative viability,NCI-H647; first compound 0.253 µM,1
same,relative viability,NCI-H647; first compound 0.8 µM,1.11
same,relative viability,NCI-H647; first compound 2.53 µM,0.9
same,relative viability,NCI-H1975; first compound 0.08 µM,1.07
same,relative viability,NCI-H1975; first compound 0.253 µM,0.666
same,relative viability,NCI-H1975; first compound 0.8 µM,0.919
same,relative viability,NCI-H1975; first compound 2.53 µM,0.737
same,relative viability,LC-2-ad; first compound 0.08 µM,0.468
same,relative viability,LC-2-ad; first compound 0.253 µM,0.382
same,relative viability,LC-2-ad; first compound 0.8 µM,0.435
same,relative viability,LC-2-ad; first compound 2.53 µM,0.489
same,relative viability,NCI-H460; first compound 0.08 µM,1.44
same,relative viability,NCI-H460; first compound 0.253 µM,0.879
same,relative viability,NCI-H460; first compound 0.8 µM,0.816
same,relative viability,NCI-H460; first compound 2.53 µM,0.874
same,relative viability,SK-LU-1; first compound 0.08 µM,0.929
same,relative viability,SK-LU-1; first compound 0.253 µM,0.809
same,relative viability,SK-LU-1; first compound 0.8 µM,0.936
same,relative viability,SK-LU-1; first compound 2.53 µM,0.823
same,relative viability,NCI-H1734; first compound 0.08 µM,0.725
same,relative viability,NCI-H1734; first compound 0.253 µM,0.637
same,relative viability,NCI-H1734; first compound 0.8 µM,0.662
same,relative viability,NCI-H1734; first compound 2.53 µM,0.619
same,relative viability,PC-3 [JPC-3]; first compound 0.08 µM,0.936
same,relative viability,PC-3 [JPC-3]; first compound 0.253 µM,0.903
same,relative viability,PC-3 [JPC-3]; first compound 0.8 µM,0.966
same,relative viability,PC-3 [JPC-3]; first compound 2.53 µM,0.92
same,relative viability,HCC-15; first compound 0.08 µM,0.968
same,relative viability,HCC-15; first compound 0.253 µM,0.746
same,relative viability,HCC-15; first compound 0.8 µM,0.823
same,relative viability,HCC-15; first compound 2.53 µM,0.743
same,relative viability,A-427; first compound 0.08 µM,0.918
same,relative viability,A-427; first compound 0.253 µM,0.909
same,relative viability,A-427; first compound 0.8 µM,0.794
same,relative viability,A-427; first compound 2.53 µM,0.729
same,relative viability,HCC-78; first compound 0.08 µM,0.342
same,relative viability,HCC-78; first compound 0.253 µM,0.316
same,relative viability,HCC-78; first compound 0.8 µM,0.326
same,relative viability,HCC-78; first compound 2.53 µM,0.299
same,relative viability,NCI-H1915; first compound 0.08 µM,0.949
same,relative viability,NCI-H1915; first compound 0.253 µM,0.899
same,relative viability,NCI-H1915; first compound 0.8 µM,0.891
same,relative viability,NCI-H1915; first compound 2.53 µM,0.86
same,relative viability,NCI-H1755; first compound 0.08 µM,0.832
same,relative viability,NCI-H1755; first compound 0.253 µM,0.731
same,relative viability,NCI-H1755; first compound 0.8 µM,0.778
same,relative viability,NCI-H1755; first compound 2.53 µM,0.762
same,relative viability,RERF-LC-KJ; first compound 0.08 µM,0.807
same,relative viability,RERF-LC-KJ; first compound 0.253 µM,0.82
same,relative viability,RERF-LC-KJ; first compound 0.8 µM,0.741
same,relative viability,RERF-LC-KJ; first compound 2.53 µM,0.582
same,relative viability,NCI-H358; first compound 0.08 µM,0.729
same,relative viability,NCI-H358; first compound 0.253 µM,0.45
same,relative viability,NCI-H358; first compound 0.8 µM,0.563
same,relative viability,NCI-H358; first compound 2.53 µM,0.573
same,relative viability,LXF-289; first compound 0.08 µM,0.833
same,relative viability,LXF-289; first compound 0.253 µM,0.754
same,relative viability,LXF-289; first compound 0.8 µM,0.829
same,relative viability,LXF-289; first compound 2.53 µM,0.874
same,relative viability,NCI-H2347; first compound 0.08 µM,0.692
same,relative viability,NCI-H2347; first compound 0.253 µM,0.648
same,relative viability,NCI-H2347; first compound 0.8 µM,0.75
same,relative viability,NCI-H2347; first compound 2.53 µM,0.515
